Source: ChEMBL document CHEMBL5614390, “Novel EGFR inhibitors against resistant L858R/T790M/C797S mutant for intervention of non-small cell lung cancer” (Eur J Med Chem, 2024)

How the values were obtained:
PC-9 [1] = assay: Induction of apoptosis in human PC-9 cells expressing EGFR Del19/T790M/C797S mutant assessed as viable cells at 0.5 uM incubated for 48 hrs by Annexin V-FITC/PI staining based flow cytometric analysis (reference value: 99.8 %); type: functional; conditions: read-out: Activity
PC-9 [2] = assay: Induction of apoptosis in human PC-9 cells expressing EGFR L858R/T790M/C797S mutant assessed as viable cells at 1 uM incubated for 48 hrs by Annexin V-FITC/PI staining based flow cytometric analysis (reference value: 98.9 %); type: functional; conditions: Homo sapiens, PC-9, read-out: Activity
PC-9 [3] = assay: Induction of apoptosis in human PC-9 cells expressing EGFR L858R/T790M/C797S mutant assessed as late apoptotic cells at 0.5 uM incubated for 48 hrs by Annexin V-FITC/PI staining based flow cytometric analysis (reference value: 0.360 %); type: functional
HCC827 = assay: cells; conditions: Homo sapiens, HCC827, 72 h
Description: Cytotoxicity against human HCC827 cells expressing EGFR Del19 mutant assessed as inhibition of cell proliferation incubated for 72 hrs by CCK8 assay

PC-9 [4] = assay: Induction of cell cycle arrest in human PC-9 cells expressing EGFR L858R/T790M/C797S mutant assessed as S phase cells at 0.1 to 1 uM incubated for 24 hrs by PI staining based flow cytometric analysis (reference value: 34.5 +/- 3.3 %); type: functional; conditions: dose 0.1-1 µM
PC-9 [5] = assay: Induction of apoptosis in human PC-9 cells expressing EGFR Del19/T790M/C797S mutant assessed as late apoptotic cells at 0.1 uM incubated for 48 hrs by Annexin V-FITC/PI staining based flow cytometric analysis (reference value: 0.040 %); type: functional
PC-9 [6] = assay: cells; conditions: Homo sapiens, PC-9, 72 h
Description: Cytotoxicity against human PC-9 cells expressing EGFR L858R/T790M/C797S mutant assessed as inhibition of cell proliferation incubated for 72 hrs by CCK8 assay

PC-9 [7] = assay: cells; conditions: Homo sapiens, PC-9, 72 h; remark: listed apart in the source
Description: Cytotoxicity against human PC-9 cells expressing EGFR Del19 mutant assessed as inhibition of cell proliferation incubated for 72 hrs by CCK8 assay

PC-9 [8] = assay: Induction of apoptosis in human PC-9 cells expressing EGFR L858R/T790M/C797S mutant assessed as viable cells at 0.5 uM incubated for 48 hrs by Annexin V-FITC/PI staining based flow cytometric analysis (reference value: 98.9 %); type: functional; conditions: read-out: Activity
PC-9 [9] = assay: Antitumor activity against human PC-9 cells expressing EGFR L858R/T790M/C797S mutant xenografted in BALB/c nude mouse assessed as tumor growth inhibition at 20 mg/kg, po administered for 18 days relative to control; type: functional; conditions: PC-9, 432 h, time 18 day, read-out: TGI
PC-9 [10] = assay: Induction of apoptosis in human PC-9 cells expressing EGFR L858R/T790M/C797S mutant assessed as necrotic cells at 0.1 uM incubated for 48 hrs by Annexin V-FITC/PI staining based flow cytometric analysis (reference value: 0.540 %); type: functional
PC-9 [11] = assay: Induction of cell cycle arrest in human PC-9 cells expressing EGFR Del19/T790M/C797S mutant assessed as S phase cells at 0.1 to 1 uM incubated for 24 hrs by PI staining based flow cytometric analysis (reference value: 32.4 +/- 1.1 %); type: functional; conditions: dose 0.1-1 µM
PC-9 [12] = assay: Induction of apoptosis in human PC-9 cells expressing EGFR L858R/T790M/C797S mutant assessed as early apoptotic cells at 1 uM incubated for 48 hrs by Annexin V-FITC/PI staining based flow cytometric analysis (reference value: 0.210 %); type: functional
[13] = Toxicity in BALB/c nude mouse xenografted with human PC-9 cells expressing EGFR L858R/T790M/C797S mutant assessed as body weight loss at 10 to 40 mg/kg, po administered for 18 days; type: organism-based; conditions: in vivo, 432 h, dose 10-40 mg/kg, time 18 day
PC-9 [14] = assay: Induction of apoptosis in human PC-9 cells expressing EGFR Del19/T790M/C797S mutant assessed as viable cells at 1 uM incubated for 48 hrs by Annexin V-FITC/PI staining based flow cytometric analysis (reference value: 99.8 %); type: functional; conditions: Homo sapiens, PC-9, read-out: Activity
PC-9 [15] = assay: Induction of apoptosis in human PC-9 cells expressing EGFR Del19/T790M/C797S mutant assessed as necrotic cells at 0.5 uM incubated for 48 hrs by Annexin V-FITC/PI staining based flow cytometric analysis (reference value: 0.090 %); type: functional
MCF7 = assay: cells; conditions: Homo sapiens, MCF7, 72 h
Description: Cytotoxicity against human MCF7 cells assessed as inhibition of cell proliferation incubated for 72 hrs by CCK8 assay

A-431 = assay: cells; conditions: Homo sapiens, A-431, 72 h
Description: Cytotoxicity against human A-431 cells assessed as inhibition of cell proliferation incubated for 72 hrs by CCK8 assay

[16] = Metabolic stability in human liver microsomes assessed as half-life at 10 uM preincubated for 5 mins followed by NADPH addition and measured upto 60 mins by HPLC analysis; type: ADME, Microsome; conditions: time < 65 min
PC-9 [17] = assay: Induction of apoptosis in human PC-9 cells expressing EGFR Del19/T790M/C797S mutant assessed as late apoptotic cells at 1 uM incubated for 48 hrs by Annexin V-FITC/PI staining based flow cytometric analysis (reference value: 0.040 %); type: functional
PC-9 [18] = assay: Induction of apoptosis in human PC-9 cells expressing EGFR L858R/T790M/C797S mutant assessed as early apoptotic cells at 0.5 uM incubated for 48 hrs by Annexin V-FITC/PI staining based flow cytometric analysis (reference value: 0.210 %); type: functional
PC-9 [19] = assay: Induction of apoptosis in human PC-9 cells expressing EGFR L858R/T790M/C797S mutant assessed as necrotic cells at 0.5 uM incubated for 48 hrs by Annexin V-FITC/PI staining based flow cytometric analysis (reference value: 0.540 %); type: functional
PC-9 [20] = assay: Induction of apoptosis in human PC-9 cells expressing EGFR Del19/T790M/C797S mutant assessed as late apoptotic cells at 0.5 uM incubated for 48 hrs by Annexin V-FITC/PI staining based flow cytometric analysis (reference value: 0.040 %); type: functional
PC-9 [21] = assay: Induction of apoptosis in human PC-9 cells expressing EGFR Del19/T790M/C797S mutant assessed as early apoptotic cells at 0.5 uM incubated for 48 hrs by Annexin V-FITC/PI staining based flow cytometric analysis (reference value: 0.050 %); type: functional
[22] = Metabolic stability in Sprague-Dawley rat liver microsomes assessed as half-life at 10 uM preincubated for 5 mins followed by NADPH addition and measured upto 60 mins by HPLC analysis; type: ADME, Microsome; conditions: time < 65 min
PC-9 [23] = assay: Induction of apoptosis in human PC-9 cells expressing EGFR Del19/T790M/C797S mutant assessed as viable cells at 0.1 uM incubated for 48 hrs by Annexin V-FITC/PI staining based flow cytometric analysis (reference value: 99.8 %); type: functional; conditions: read-out: Activity
[24] = Metabolic stability in human liver microsomes assessed as intrinsic clearance at 10 uM preincubated for 5 mins followed by NADPH addition and measured upto 60 mins by HPLC analysis; type: ADME, Microsome; conditions: time < 65 min, read-out: CLH
NCI-H1975 = assay: cells; conditions: Homo sapiens, NCI-H1975, 72 h
Description: Cytotoxicity against human NCI-H1975 cells expressing EGFR L858R/T790M mutant assessed as inhibition of cell proliferation incubated for 72 hrs by CCK8 assay

PC-9 [25] = assay: Induction of apoptosis in human PC-9 cells expressing EGFR L858R/T790M/C797S mutant assessed as late apoptotic cells at 1 uM incubated for 48 hrs by Annexin V-FITC/PI staining based flow cytometric analysis (reference value: 0.360 %); type: functional

IC50 (HCC827): 108 nM
IC50 (PC-9 [6]): 52 nM
IC50 (PC-9 [7]): 144 nM
IC50 (MCF7): 3610 nM
IC50 (A-431): 1070 nM
half-life at 10 µM [16]: 3.85 h
half-life at 10 µM [22]: 1.48 h
microsomal CLint at 10 µM [24]: 20 µL/min/mg
IC50 (NCI-H1975): 106 nM
SMILES: C=CC(=O)Nc1cc(Nc2ncc(F)c(-c3ccc4cc(C(=O)NC)n(C(C)C)c4c3)n2)ccc1N1CCN(C)CC1
viability at 0.5 µM (PC-9 [1]): 82.8%
viability at 1 µM (PC-9 [2]): 58.8%
Activity (PC-9 [3]): 6.77%
Activity (PC-9 [4]): 15.9%
Activity (PC-9 [5]): 7.34%
viability at 0.5 µM (PC-9 [8]): 61.2%
inhibition in vivo at 20 mg/kg (PC-9 [9]): 58.4%
Activity (PC-9 [10]): 5.84%
Activity (PC-9 [11]): 15.6%
Activity (PC-9 [12]): 36.3%
Activity [13]: Non-Toxic
viability at 1 µM (PC-9 [14]): 79.1%
Activity (PC-9 [15]): 1.2%
Activity (PC-9 [17]): 8.3%
Activity (PC-9 [18]): 30.3%
Activity (PC-9 [19]): 1.77%
Activity (PC-9 [20]): 4.19%
Activity (PC-9 [21]): 11.8%
viability at 0.1 µM (PC-9 [23]): 85.8%
Activity (PC-9 [25]): 4.02%
